Test results taken from patent US10150734B2, “Solid forms of 2-(5-(3-fluorophenyl)-3-hydroxypicolinamido)acetic acid, compositions, and uses thereof” (Akebia Therapeutics, Inc., priority 2015, dated 2018).
Converted amounts (≈) assume the structure as drawn. “Also recorded” adds a separate entry of the source. Like-named read-outs stand apart in the source and are kept apart here.

Tests used:
[1] = Dynamic vapour sorption (moisture sorption) with XRPD of post-DVS material; type: physicochemical; settings: for XRPD analysis of the post-DVS material: after DVS and drying at 60 °C for 2 hours; for Hygroscopicity (in words): from DVS moisture sorption; for Moisture Sorption (hygroscopicity in words): from uptake at 60% and 90% RH
Method: Dynamic vapour sorption experiment was carried out by first holding the sample at 40% RH and 25.0° C. until an equilibrium weight was reached or for a maximum of four hours. The sample was then subjected to an isothermal (at 25.0° C.) adsorption scan from 40 to 90% RH in steps of 10%. The sample was allowed to equilibrate to an asymptotic weight at each point for a maximum of four hours. Following adsorption, a desorption scan from […] to 5% RH (at 25.0° C.) was run in steps of 10% again allowing a maximum of four hours for equilibration to an asymptotic weight. An adsorption scan was then performed from 0 to 40% RH in steps of 10%. The sample was then dried for no less than two hours at 60.0° C. and the resulting solid analyzed by XRPD.

[2] = Thermal holding (TGA thermal hold) experiments of salts, XRPD of resulting solid; type: physicochemical
Method: Salt I, Salt II, Salt III, Salt IV, Salt V, Salt VI, Salt VII, Salt VIII, Salt IX and Salt X were characterized to evaluate its physical form and stability.
In an effort to isolate a high melt crystal form, the material was held at 130° C. for 2 minutes followed by cooling to ambient temperature.
In an effort to isolate a high melt crystal form through a dehydration/recrystallization process, Salt IV was held at 130° C. for 2 minutes followed by cooling to ambient temperature.

[3] = Competitive slurry of calcium, potassium and sodium salts in acetone; type: physicochemical; settings: for Outcome of competitive slurry of salts (in words): acetone (50 μL water added for potassium and sodium salts), room temperature, one and seven days; for XRPD of solids, aliquot time point Day 1 / XRPD of solids, aliquot time point Day 7: RT
Method: Calcium, sodium, and potassium salts were used to setup different competitive slurry experiments. For competitive slurry of calcium salts (˜5-6 mg of Salt I and Salt II) were weighed into a 5.0 mL clear vial equipped with magnetic stir bars. These steps were repeated for potassium salt material (˜5-6.5 mg of Salt III) and sodium salt materials (˜2.6-6.4 mg of Salt IV and Salt V). […] All slurries, 400 μL, were filtered through 0.45 micron centrifuge filters after one and seven days of equilibration. The solids were analyzed by XRPD to check for salt conversion (Table 36).

[4] = Stability of crystalline materials from selected salts in different humidity (XRPD); type: physicochemical; settings: for XRPD Post humidity exposure: 65% RH, RT; for XRPD Initial: before humidity exposure
Excerpt: Table 49 provides thermal stability data. Table 50 provides TGA thermal data.

[5] = Thermal stability experiments (solid stored at 60 °C; XRPD and HPLC); settings: for XRPD, aliquot time point Day 1 / XRPD, aliquot time point Day 7: solid stored at 60.0 °C; for Physical form / XRPD pattern change after storage at 60 °C for seven days (in words) / Chemical stability / degradation by HPLC after storage at 60 °C for seven days (in words): solid
[6] = Aqueous solubility (slurry in deionized water at room temperature, filtrate by HPLC, solids by XRPD); settings: for Aqueous Solubility / Solubility: deionized water; for Aqueous Solubility: standard curve linear range 0.008 to 0.2 mg/mL; for Aqueous Solubility: XRPD (1 day) of solids: solid form after 1 day slurry in water; for Solubility: equilibrated with stirring, filtrate by HPLC
Method: Approximately 14-25 mg of Forms A, D and G were transferred to 20 mL vials equipped with magnetic stir bars. 1.0 mL of deionized water was added and the resulting free flowing slurry was allowed to equilibrate over 1 and 7 days period with stirring at room temperature. […] The filtrates were analyzed by HPLC to determine solubility.

[7] = Single form slurry experiments of Forms A, D and G; type: physicochemical; settings: ambient temperature, all tested conditions
Method: Single form slurry experiments were conducted for Forms A, D and G in three solvents stems, water, 1:2 v/v IPAc/heptane, and toluene to evaluate their physical form stability as a single polymorph (Table 14). Form A remained unchanged at six day time point. […] Form D remained unchanged for three days in water but converted to a mixture A and D at six days. In 1:2 IPAc/heptane and toluene, Form D converted to a mixture of A and D at three days and then Form A at six days. […] Form D is also a metastable polymorph but its conversion to Form A is kinetically slower than Form G. The conversion was the slowest in water partly due to low solubility.
Approximately 10-20 mg of Forms A, D and G were weighed into 8 mL clear vials equipped with magnetic stir bars (Table 14). Water, IPAc/Heptane (1:2 V/V) and toluene were used as the solvent systems for these competitive slurry experiments. Three selected solvents, 1.0 mL, were added to achieve free-flowing slurry and allowed to equilibrate at room temperature. All slurries will be isolated via centrifuge filtration after three day and six days of equilibration.

[8] = slurry of potassium or sodium salts in acetone + 0.05 mL water
[9] = after thermal stress at 60.0 °C
[10] = parent material before thermal stress
[11] = competitive slurry of calcium salts (Salt I + Salt II) in acetone 1.0 mL

Row | Structure (SMILES) | hydration property [1] | Moisture Sorption ([1]; 60% RH) | Moisture Sorption ([1]; 90% RH) | Moisture adsorbed at 60% RH ([1]; DVS, 25.0 °C, 60% RH) [wt %] | Moisture Sorption 90% RH ([1]; DVS, 25.0 °C, 90% RH) [wt %] | XRPD analysis of the post-DVS material [1] | Hygroscopicity (in words) [1] | Outcome of competitive slurry of salts (in words) [3] | XRPD of solids, aliquot time point Day 1 [3, 8] | XRPD of solids, aliquot time point Day 7 [3, 8] | XRPD Post humidity exposure [4] | XRPD Initial [4] | HPLC (% AUC) [5, 9] [% AUC] | Parent Material HPLC (% AUC) [5, 10] [% AUC] | XRPD, aliquot time point Day 1 [5] | XRPD, aliquot time point Day 7 [5] | Aqueous Solubility ([6]; room temperature) [µg/mL] | Aqueous Solubility: XRPD (1 day) of solids [6] | Moisture Sorption (hygroscopicity in words) ([1]; DVS) | Physical form / XRPD pattern change after storage at 60 °C for seven days (in words) [5] | also measured
1 | O=C([O-])CNC(=O)c1ncc(-c2cccc(F)c2)cc1O.[Na+] [Salt VI] | anhydrate | 60% RH: 0.3 wt % | 90% RH: 0.7 wt % | 0.3 | 0.7 | consistent XRPD diffractogram | slightly hydroscopic; also recorded: slightly hygroscopic | – | – | – | – | – | – | – | – | – | – | – | – | – | –
2 | O.O=C([O-])CNC(=O)c1ncc(-c2cccc(F)c2)cc1[O-].[Na+].[Na+] [Salt V] | monohydrate | 60% RH: 6.0 wt % | 90% RH: 6.4 wt % | 6.0 | 6.4 | mostly consistent with Salt V with a few missing peaks | moderately hydroscopic; also recorded: moderately hygroscopic | most stable polymorphs | Salt V + | Salt V | Salt V | Salt V | 99.9 | 99.9 | Salt V | Salt V | 79800 | Salt V + Extra | (moderately | – | XRPD Pre-thermal hold ([2]; before TGA thermal hold): Salt V
3 | O=C([O-])CNC(=O)c1ncc(-c2cccc(F)c2)cc1O.O=C([O-])CNC(=O)c1ncc(-c2cccc(F)c2)cc1O.[Ca+2] [Salt I] | – | 60% RH: 1.0 wt % | 90% RH: 4.1 wt % | 1.0 | 4.1 | consistent XRPD pattern as the starting material | moderately hydroscopic; also recorded: moderately hygroscopic | most stable polymorphs | – | – | – | – | – | – | Salt I | Salt I | 10 | Salt I + Extra | (moderately | no change in physical form | XRPD of solids, aliquot time point Day 1 [3, 11]: Salt I; XRPD of solids, aliquot time point Day 7 [3, 11]: Salt I; Chemical stability / degradation by HPLC after storage at 60 °C for seven days (in words) [5]: chemically stable; Solubility ([6]; room temperature): 10 µg/mL; hydration property ([1]; 60% RH): anhydrate (60%; hydration property ([1]; 90% RH): monohydrate
4 | O=C([O-])CNC(=O)c1ncc(-c2cccc(F)c2)cc1O.[K+] [Salt III] | – | 60% RH: 2.1 wt % | 90% RH: 4.5 wt % | 2.1 | 4.5 | – | moderately hydroscopic; also recorded: moderately hygroscopic | most stable polymorphs | Salt III | Salt III | Salt III + Salt IX | Salt III + Salt IX | 99.9 | 99.9 | Salt III | Salt III | – | – | (moderately | no change in physical form | XRPD Post thermal hold ([2]; 30-130 °C at 10 °C/min, hold 130 °C/2 min): Salt III; XRPD Post thermal hold, sample left on bench top, 24 hrs ([2]; 30-130 °C at 10 °C/min, hold 130 °C/2 min, then bench top 24 hrs): Salt III; XRPD of solid after thermal hold at 130 °C for 2 minutes ([2]; held at 130 °C for 2 minutes, cooled to ambient temperature): consistent with Salt III; Solid form by XRPD after 1 day ([6]; slurry in deionized water, room temperature, 1 day (24 hour)): converted from Salt III to Salt IX; Solid form by XRPD after 7 day ([6]; slurry in deionized water, room temperature, 7 days): remained as Salt IX; hydration property ([1]; 60% RH): hemi-(60% RH); hydration property ([1]; 90% RH): to mono-hydrate
5 | O=C(O)CNC(=O)c1ncc(-c2cccc(F)c2)cc1O [Form G, 2-(5-(3-fluorophenyl)-3-hydroxypicolinamido)acetic acid] | – | – | – | 0.4 | 7.1 | afforded Form A | slightly hygroscopic; also recorded: moderately hygroscopic | – | – | – | – | – | – | – | form mixture; also recorded: A + G | only Form A | – | – | – | – | HPLC (% AUC) ([5]; after storage at 60.0 °C): >99.9 % AUC; Parent Material HPLC (% AUC) ([5]; before storage at 60.0 °C): >99.3 % AUC; Chemical stability / degradation by HPLC after storage at 60 °C for seven days (in words) [5]: chemically stable; Solubility ([6]; water, thermodynamic from solid, Solubility, room temperature): 61 µg/mL (≈ 210 µM); Moisture Sorption 60% RH ([1]; DVS, 25.0 °C, 60% RH): 0.4%; Moisture Sorption 90% RH ([1]; DVS, 25.0 °C, 90% RH, listed as G): 7.1 wt %; Weight moisture uptake at 60% RH ([1]; DVS, 60% RH): about 0.4 % weight; Weight moisture uptake at 90% RH ([1]; DVS, 90% RH): about 7.1 % weight; Outcome in the single form and competitive slurry experiments (in words) [7]: converted to Form A
